Data from patent US7285393B2, “Assay for modulation of γ secretase” (Merck Sharp & Dohme Limited, priority 2002, dated 2007).

Tests used:
γ(40)-secretase activity = target: T1, γ(40)-secretase activity (Homo sapiens, UniProt P49768); test: Exogenous substrate γ-secretase assay, Aβ(40) generation from C100Flag; type: biochemical; details: SH-SY5Y membranes, recombinant C100Flag substrate, 0.5% CHAPSO
T1 construct: utilizing SH-SY5Y membranes as source of γ-secretase enzyme; endogenous in cells; host or cells: human SH-SY5Y neuroblastoma cell membranes (0.5% CHAPSO)
Protocol: (§1) Exogenous substrate γ-secretase assays—For determination of the potencies of Merck A and B, membranes from SH-SY5Y membranes stored in PBS, 5% glycerol were collected by centrifugation for 30 min at 180,000 g. For in vitro generation of Aβ peptides, 80 μg of membranes were incubated with 7.5 μg of recombinant C100Flag (Li et al., 2000a) in 20 mM HEPES, pH 7.3, 2 mM EDTA, 0.1% bovine serum albumin, 0.5% CHAPSO in 100 μl final volume similar to described methods (Li et al., 2000a) in the presence of increasing compound concentrations. Aβ peptides were quantified by an electrochemiluminescence assay in a 96-well plate format [Origen M-Series™ analyzer, Igen] as described (Beher et al., 2001) using 35 μl of the reaction for Aβ(40) and 50 μl for Aβ(42) detection. Non-specific background was defined by the signal obtained when the assay was performed in the presence of 10 μM of Merck A. For determination of γ-secretase activity in the sucrose gradient fractions, 20 μl of each fraction were incubated with 10 μg of recombinant C100Flag and processed further as above.
(§2) FIG. 1. γ-Secretase inhibitors synthesized for this study and their potencies for inhibition of γ(40)- and γ(42)-secretase activities. […] The reduction of Aβ generation was measured relative to Me2SO-treated controls and error bars indicate the standard error the mean from triplicate experiments.

γ(42)-secretase activity = target: T2, γ(42)-secretase activity (Homo sapiens, UniProt P49768); test: Exogenous substrate γ-secretase assay, Aβ(42) generation from C100Flag; type: biochemical; details: SH-SY5Y membranes, recombinant C100Flag substrate, 0.5% CHAPSO
T2 construct: utilizing SH-SY5Y membranes as source of γ-secretase enzyme; endogenous in cells; host or cells: human SH-SY5Y neuroblastoma cell membranes (0.5% CHAPSO)
Protocol: as §1, §2

[1] = system: Aβ42, Aβ38 and Aβ40 production; details: cited from earlier work
[2] = target: T3, γ-secretase complex (PS1 heterodimer and nicastrin) (Homo sapiens, UniProt P49768); test: Inhibitor affinity precipitation of CHAPSO-solubilized γ-secretase with biotinylated Merck C, Western blot; type: binding; details: test compound 200 μM, Merck C 0.1 μM, 2.5 mg beads
T3 construct: mainly occurs as a heterodimer of its N- and C-terminal fragment; endogenous in cells; host or cells: human SH-SY5Y neuroblastoma cell membranes, solubilised in 1% CHAPSO and diluted to 0.5%
Protocol: Western blot analyses—Equal amounts of protein were separated by SDS-polyacrylamide gel electrophoresis and transferred to nitrocellulose membranes. Probing of the membranes was carried out with various antibodies, as indicated in the figures, using the enhanced-chemiluminescence system (ECL, Amersham). Quantitation of bands using a computerized image analysis system (MCID, Imaging Research Inc.) was performed as described previously (Beher et al., 1999).
CHAPSO-solubilization of active γ-secretase and inhibitor affinity precipitations—SH-SY5Y membranes stored in PBS, 5% glycerol were collected by centrifugation for 30 min at 180,000 g. Membrane proteins were solubilized in 1% (w/v) CHAPSO, 50 mM MES-NaOH, pH 6.0, 0.15 M NaCl, 5 mM MgCl2, 1×EDTA-free protease inhibitor mixture (Roche Molecular Biochemicals). Insoluble debris was removed by centrifugation at 180,000 g for 30 min and the resulting supernatant (solubilized γ-secretase) adjusted with the same buffer without CHAPSO to give a final detergent concentration of 0.5% CHAPSO (w/v). Endogenous biotinylated proteins were removed by adding streptavidin-coupled magnetic beads and centrifugation for 2 min at 20,000 g after an incubation for 30 min at 4° C. […]

SMILES: CC(C)CC(NC(=O)C(Cc1ccccc1)CC(O)C(Cc1ccccc1)NC(=O)OC(C)(C)C)C(=O)NC(Cc1ccccc1)C(N)=O (stereo not shown) [Merck A]
- IC50 for inhibition of γ(40)-secretase activity (in vitro generation of Aβ(40)) (γ(40)-secretase activity): low nanomolar range
- IC50 for inhibition of γ(42)-secretase activity (in vitro generation of Aβ(42)) (γ(42)-secretase activity): low nanomolar range

SMILES: CC(C)CC(NC(=O)C(Cc1ccccc1)CC(O)C(Cc1ccccc1)NC(=O)OC(C)(C)C)C(=O)NC(Cc1ccccc1)C(=O)NCCCCCNC(=O)CCCCCNC(=O)CCCCCNC(=O)CCCCCN (stereo not shown) [Merck B]
- IC50 for inhibition of γ(40)-secretase activity (in vitro generation of Aβ(40)) (γ(40)-secretase activity): low nanomolar range
- IC50 for inhibition of γ(42)-secretase activity (in vitro generation of Aβ(42)) (γ(42)-secretase activity): low nanomolar range

SMILES: CC(C)Cc1ccc(C(C)C(=O)O)cc1 (stereo not shown) [ibuprofen]
- Effect on production of Aβ38 [1]: increasing
- Effect on production of Aβ40 [1]: constant
- Effect on production of Aβ42 [1]: inhibit

SMILES: COc1ccc2c(c1)c(CC(=O)O)c(C)n2C(=O)c1ccc(Cl)cc1 [indomethacin]
- Effect on production of Aβ38 [1]: increasing
- Effect on production of Aβ40 [1]: constant
- Effect on production of Aβ42 [1]: inhibit

SMILES: CC1=C(CC(=O)O)c2cc(F)ccc2/C1=C\c1ccc(S(C)(=O)=O)cc1 [sulindac sulfone]
- Effect on capture efficiency for PS1 heterodimer and mature nicastrin by Merck C [2]: comparable to the DMSO (Me2O) control
- Effect on production of Aβ42 [1]: does not lower

SMILES: CSc1ccc(/C=C2/C(C)=C(CC(=O)O)c3cc(F)ccc32)cc1 [sulindac sulphide]
- Effect on capture efficiency for PS1 heterodimer and mature nicastrin by Merck C [2]: enhanced
- Effect on production of Aβ38 [1]: increasing
- Effect on production of Aβ40 [1]: constant
- Effect on production of Aβ42 [1]: inhibit
